Common to all, as to format: cell-based
Assay [1] deals with Helicobacter pylori TK1029 strain. As to the kind of experiment: Proliferation inhibitory effect (in vitro) by ED50 measurement, viable count. The settings on record: BHI 2% FCS, viable count; for ED50 value, 15 hr later: 15 hr shaking culture; for ED50 value, 25 hr later: 25 hr shaking culture. As for the experimental part:
Helicobacter pylori TK1029 strain (clinical isolate) was cultured in Brucella broth containing 10% FCS and 1×10^6 CFU of bacteria were respectively added to 3 mL of Brain-Heart Infusion Broth (BHI) media (previously added with free fatty acid (stearic acid, oleic acid, linoleic acid, ricinoleic acid, HYA) at 0, 0.5, 5, 50, 500 μg/mL) containing 2% FCS in a 6-well plate. Shaking culture was performed under conditions of temperature 37° C., humidity 100%, microaerobic (5% 02, 10% CO2, 85% N2), the culture medium (0.1 mL) from each well was applied to NISSUI plate, Helicobacter agar medium 15 hr and 25 hr later, and the number of colonies formed after microaerobic culture for 3 days was counted.

In assay [2] the test system is Helicobacter pylori SS1 strain, TN2GF4 strain, ATCC43579 strain, NCTC11637 strain, TY281 strain, TY1345 strain. The experiment in a line: Proliferation inhibitory effect (in vitro), static culture 3 days, colony count. To be noted: menaquinone (MK-4) 100 μg/mL added with fatty acid. As to the method: Helicobacter pylori SS1 strain, TN2GF4 strain, ATCC43579 strain, NCTC11637 strain, TY281 strain, TY1345 strain were each inoculated to a 6-well plate containing 3 mL of a liquid medium (Brucella broth added with 10% FCS), and fatty acid (200 μM or 1000 μM) and menaquinone (MK-4) 100 μg/mL were added. After static culture for 3 days at temperature 37° C., microaerobic conditions (5% 02, 10% 002, 85% N2), the culture medium was applied on a Helicobacter agar plate, cultured for 3 days and the resulting colonies were counted (FIG. 1-1 A: SS1 strain, FIG. 1-2 B: TN2GF4 strain, FIG. 1-3 C: ATCC43579 strain, FIG. 1-4 D: NCTC11637 strain, FIG. 1-5 E: TY281 strain, FIG. 1-6 F: TY1345 strain. Item C: control (no addition), Item 1: HYA addition, Item 2: HYA and menaquinone addition, Item 3: linoleic acid addition, Item 4: linoleic acid and menaquinone addition).

Assay [3] has as its system Helicobacter pylori SS1 strain, TN2GF4 strain, TK1029 strain, RC-1 strain. As to the kind of experiment: Proliferation inhibitory effect (in vitro) of low concentration fatty acid, shaking culture 24 hr, colony count. To be noted: menaquinone (MK-4) 100 μg/mL added with fatty acid 20 μM. As to the method: Helicobacter pylori SS1 strain, TN2GF4 strain, TK1029 strain, RC-1 strain were each inoculated to a 6-well plate containing 2 mL of a liquid medium (BHI added with 5% FCS), and fatty acid (20 μM) and menaquinone (MK-4) 100 μg/mL were added. After shaking culture for 24 hr at temperature 37° C., microaerobic conditions (5% 02, 10% CO2, 85% N2), the culture medium was applied on a Helicobacter agar plate, cultured for 3 days and the resulting colonies were counted (FIG. 2-1 A: SS1 strain, FIG. 2-2 B: TN2GF4 strain, FIG. 2-3 C: TK1029 strain, FIG. 2-4 D: RC-1 strain. Item 1: control (menaquinone no addition), Item 2: control (menaquinone 100 μg/mL addition), Item 3: HYA 20 μM (menaquinone no addition), Item 4: HYA 20 μM (menaquinone 100 μg/mL addition), Item 5: linoleic acid 20 μM (menaquinone no addition), Item 6: linoleic acid 20 μM (menaquinone 100 μg/mL addition). *, P<0.0001 vs. Control (ordinary one-way ANOVA)).

In assay [4] the test system is Campylobacter jejuni ATCC33560 strain. The experiment in a line: Proliferation inhibitory effect (in vitro) on Campylobacter jejuni, absorbance and colony count. The settings on record: 100, 200, 400 μM, 24 hr; concentration dependent; strong compared to linoleic acid.
Assay [5] concerns Campylobacter coli ATCC33559 strain. The experiment in a line: Proliferation inhibitory effect (in vitro) on Campylobacter coli, absorbance and colony count. The settings on record: 100, 200, 400 μM, 24 hr; concentration dependent; strong compared to linoleic acid.

The values below come from patent US12357601B2, “Composition for inhibiting growth of bacterium having menaquinone synthesis pathway through futalosine or futalosine derivative” (NOSTER INC., priority 2017, dated 2025).

Converted amounts (≈) assume the structure as drawn.

`CCCCC/C=C\C/C=C\CCCCCCCC(=O)O` [linoleic acid]: in assay [1], the “ED50 value, 15 hr later” value is 50 µg/mL (≈ 178 µM) and the “ED50 value, 25 hr later” value is 50 µg/mL (≈ 178 µM).
Take `CC(C)=CCC/C(C)=C/CC/C(C)=C/CC/C(C)=C/CC1=C(C)C(=O)c2ccccc2C1=O` [menaquinone (MK-4), menaquinone]: the “effect of menaquinone addition on inhibition of proliferation by fatty acid” value in assay [2] and in assay [3] was “mitigated inhibition of proliferation” in each case.
On to `CCCCCCCC/C=C\CCCCCCCC(=O)O` [oleic acid], for which, in assay [1], the “ED50 value, 15 hr later” value is 50 µg/mL (≈ 177 µM) and the “ED50 value, 25 hr later” value is more than 50 µg/mL.
For the molecule `CCCCCC[C@@H](O)C/C=C\CCCCCCCC(=O)O` [ricinoleic acid], in assay [1], the “ED50 value, 15 hr later” value turned out to be 5 µg/mL (≈ 16.8 µM) and the “ED50 value, 25 hr later” value is 0.5 µg/mL (≈ 1.68 µM).
Consider `CCCCCCCCCCCCCCCCCC(=O)O` [stearic acid], for which, in assay [1], the “ED50 value, 15 hr later” value is 500 µg/mL (≈ 1760 µM) and the “ED50 value, 25 hr later” value was more than 500 µg/mL.
Regarding `CC/C=C\C/C=C\CC(O)CCCCCCCCC(=O)O` (stereo not drawn) [αHYA, 10-hydroxy-cis-12,cis-15-octadecadienoic acid], the “proliferation of Campylobacter jejuni ATCC33560 strain” value in assay [4] is given as “inhibited proliferation”. Also, the “proliferation of Campylobacter coli ATCC33559 strain” value in assay [5] was “inhibited proliferation”.
In the case of `CCCCC/C=C\CC(O)CC/C=C\CCCCC(=O)O` (stereo not drawn) [γHYA, 10-hydroxy-cis-6,cis-12-octadecadienoic acid], the “proliferation of Campylobacter jejuni ATCC33560 strain” value in assay [4] is reported as “inhibited proliferation”. Moreover, in assay [5], the “proliferation of Campylobacter coli ATCC33559 strain” value is recorded as “inhibited proliferation”.
